{"source": "patent US20140005165A1", "about": "“SUBSTITUTED 3-AZABICYCLO[3.1.0]HEXANE DERIVATIVES USEFUL AS CCR2 ANTAGONISTS” (priority 2011, published 2014)"}
{"target": "T1, human CCR2 (Homo sapiens, UniProt P41597)", "T1 construct": "expressed in transfected cells; host or cells: Ba/F3 cells (membrane preparation)", "T1 sequence (P41597 whole entry)": "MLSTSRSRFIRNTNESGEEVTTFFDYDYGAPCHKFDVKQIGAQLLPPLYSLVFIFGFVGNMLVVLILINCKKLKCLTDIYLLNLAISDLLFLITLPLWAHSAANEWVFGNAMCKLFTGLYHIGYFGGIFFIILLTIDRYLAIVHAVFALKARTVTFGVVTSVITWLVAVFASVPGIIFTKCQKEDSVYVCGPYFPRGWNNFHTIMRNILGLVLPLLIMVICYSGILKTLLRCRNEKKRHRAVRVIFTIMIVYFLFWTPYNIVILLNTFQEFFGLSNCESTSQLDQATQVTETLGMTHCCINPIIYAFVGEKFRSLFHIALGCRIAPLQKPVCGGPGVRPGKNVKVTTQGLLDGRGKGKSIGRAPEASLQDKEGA", "experiment": "CCR2 Membrane Binding Assay (SPA radio-ligand binding, 125I-rhMCP-1)", "conditions": "membranes from Ba/F3 cells transfected with human CCR2; 0.03 nM 125I-rhMCP-1; class symbols", "procedure": "The radio-ligand binding assay was done using scintillation proximity assay (SPA) technology. Briefly, membranes (1 μg per assay point) from Ba/F3 cells transfected with human CCR2, and wheat germ agglutinin-coated SPA beads (80 μg per point; Amersham, Arlington Heights, Ill.), were pre-incubated for 30 min at room temperature in CCR2 buffer (50 mM HEPES (pH=7.4), 10 mM MgCl2, 10 mM NaCl, 1 mM CaCL2, 0.1% BSA, 10 μg/ml Saponin). At this point pre-bound SPA bead, membrane complex was incubated at room temperature for 4 h with varying concentrations of punitive CCR2 antagonists (in 1% DMSO, final) and 0.03 nM ^125I-rhMCP-1 in CCR2Buffer (S.A. 2200 Ci/mmol, PerkinElmer Life and Analytical Science, Boston, Mass.; NEX332). Binding competition was measured using a 1450 Microbeta Trilux counter (Wallac, Gaithersburg, Md.). Binding constants (IC50 and slope) were calculated using GraphPad Prism software (GraphPad Software, Inc., La Jolla Calif.).", "units": {"IC50": "nM"}}
{"smiles": "COc1ccc([C@H]2CC[C@H](N3C[C@@H]4[C@H](C3)[C@H]4C(=O)NCC(=O)Nc3cccc(C(F)(F)F)c3)CC2)cc1", "note": "[Compound 131]", "IC50 (nM)": "D (compounds with IC50 values between 701 nM and 110 nM are designated as D class compounds)"}
{"smiles": "O=C(CNC(=O)[C@H]1[C@@H]2CN(CC3CC3)C[C@@H]21)Nc1cccc(C(F)(F)F)c1", "note": "[Compound 158]", "IC50 (nM)": "D (compounds with IC50 values between 701 nM and 110 nM are designated as D class compounds)"}
{"smiles": "O=C([C@H]1[C@@H]2CN([C@H]3CC[C@@H](c4ccccc4)CC3)C[C@@H]21)N1CC[C@@H](Nc2nccc(C(F)(F)F)n2)C1", "note": "[Compound 6]", "IC50": "51 to 200"}
{"smiles": "N#Cc1ccc(C2CCN(C(=O)[C@H]3[C@@H]4CN([C@H]5CC[C@@H](c6ccccc6)CC5)C[C@@H]43)C2)cc1", "note": "(stereo partly drawn) [Compound 41]", "IC50": "201 to 700"}
{"smiles": "O=C(CNC(=O)[C@H]1[C@@H]2CN([C@H]3CC[C@@H](c4cnc(O)nc4)CC3)C[C@@H]21)Nc1cccc(C(F)(F)F)c1", "note": "[Compound 118]", "IC50": "201 to 700"}
{"smiles": "O=C(CNC(=O)[C@H]1[C@@H]2CN([C@H]3CC[C@@H](c4ccc(=O)[nH]c4)CC3)C[C@@H]21)Nc1cccc(C(F)(F)F)c1", "note": "[Compound 117]", "IC50": "< 50"}
{"smiles": "CN(C(=O)[C@H]1[C@@H]2CN([C@H]3CC[C@@H](c4ccccc4)CC3)C[C@@H]21)[C@H]1CCN(c2ncc(C(F)(F)F)cn2)C1", "note": "[Compound 129]", "IC50": "201 to 700"}
{"smiles": "CC1(C)CCCC(N2C[C@@H]3[C@H](C2)[C@H]3C(=O)NCC(=O)Nc2cccc(C(F)(F)F)c2)C1", "note": "(stereo partly drawn) [Compound 38]", "IC50": "201 to 700"}
{"smiles": "CCC(CC)N1C[C@@H]2[C@H](C1)[C@H]2C(=O)NCC(=O)Nc1cccc(C(F)(F)F)c1", "note": "[Compound 13]", "IC50": "51 to 200"}
{"smiles": "O=C([C@H]1[C@@H]2CN([C@H]3CC[C@@H](c4ccccc4)CC3)C[C@@H]21)N1CCN(c2cccc(C(F)(F)F)c2)C(=O)C1", "note": "[Compound 127]", "IC50 (nM)": "D (compounds with IC50 values between 701 nM and 110 nM are designated as D class compounds)"}
{"smiles": "O=C(CNC(=O)[C@H]1[C@@H]2CN([C@H]3CC[C@@H](c4cncnc4)CC3)C[C@@H]21)Nc1cccc(C(F)(F)F)c1", "note": "[Compound 91]", "IC50": "< 50"}
{"smiles": "O=C(CNC(=O)[C@H]1[C@@H]2CN([C@H]3CC[C@@H](c4ccc(OCc5ccccc5)cc4)CC3)C[C@@H]21)Nc1cccc(C(F)(F)F)c1", "note": "[Compound 160]", "IC50": "< 50"}
{"smiles": "O=C(CNC(=O)[C@H]1[C@@H]2CN(C3CCSCC3)C[C@@H]21)Nc1cccc(C(F)(F)F)c1", "note": "[Compound 35]", "IC50 (nM)": "D (compounds with IC50 values between 701 nM and 110 nM are designated as D class compounds)"}
{"smiles": "FC(F)(F)c1cccc(CN(Cc2cccc(C(F)(F)F)c2)c2nnc([C@H]3[C@@H]4CN([C@H]5CC[C@@H](c6ccccc6)CC5)C[C@@H]43)o2)c1", "note": "[Compound 8]", "IC50": "201 to 700"}
{"smiles": "O=C(CNC(=O)[C@H]1[C@@H]2CN([C@H]3CC[C@H](c4cccs4)CC3)C[C@@H]21)Nc1cccc(C(F)(F)F)c1", "note": "[Compound 100]", "IC50": "201 to 700"}
{"smiles": "O=C(CNC(=O)[C@H]1[C@@H]2CN(C3CC(CO)C3)C[C@@H]21)Nc1cccc(C(F)(F)F)c1", "note": "(stereo partly drawn) [Compound 23]", "IC50": "201 to 700"}
{"smiles": "O=C(NCCCc1cccc(C(F)(F)F)c1)[C@H]1[C@@H]2CN([C@H]3CC[C@@H](c4ccccc4)CC3)C[C@@H]21", "note": "[Compound 62]", "IC50": "51 to 200"}
{"smiles": "COC(=O)[C@H]1CC[C@@H](N2C[C@@H]3[C@H](C2)[C@H]3C(=O)NCC(=O)Nc2cccc(C(F)(F)F)c2)CC1", "note": "[Compound 57]", "IC50": "< 50"}
{"smiles": "CC(C)C1CCC(N2C[C@@H]3[C@H](C2)[C@H]3C(=O)NCC(=O)Nc2cccc(C(F)(F)F)c2)CC1", "note": "(stereo partly drawn) [Compound 45]", "IC50": "201 to 700"}
{"smiles": "CCCC(C)N1C[C@@H]2[C@H](C1)[C@H]2C(=O)NCC(=O)Nc1cccc(C(F)(F)F)c1", "note": "(stereo partly drawn) [Compound 14]", "IC50 (nM)": "D (compounds with IC50 values between 701 nM and 110 nM are designated as D class compounds)"}
{"smiles": "COCC(C)N1C[C@@H]2[C@H](C1)[C@H]2C(=O)NCC(=O)Nc1cccc(C(F)(F)F)c1", "note": "(stereo partly drawn) [Compound 15]", "IC50": "201 to 700"}
